Assay [1] deals with T1, Mitogen-activated protein kinase 14 (Homo sapiens, UniProt Q16539). In words: Kinase Activity Assay. The settings on record: pH 7. On the procedure: In vitro kinase activity and selectivity was determined by using SelectScreen kinase profiling Z'-LYTE assay from Invitrogen.
In assay [2] the target is T1, Mitogen-activated protein kinase 14. The experiment in a line: Fluorescence-Based Competition Assay. To be noted: pH 7. The source says: The competitive binding between test compounds and a fluorescence p38 alpha inhibitor, SK&F 86002.

T1 sequence (Q16539 whole entry): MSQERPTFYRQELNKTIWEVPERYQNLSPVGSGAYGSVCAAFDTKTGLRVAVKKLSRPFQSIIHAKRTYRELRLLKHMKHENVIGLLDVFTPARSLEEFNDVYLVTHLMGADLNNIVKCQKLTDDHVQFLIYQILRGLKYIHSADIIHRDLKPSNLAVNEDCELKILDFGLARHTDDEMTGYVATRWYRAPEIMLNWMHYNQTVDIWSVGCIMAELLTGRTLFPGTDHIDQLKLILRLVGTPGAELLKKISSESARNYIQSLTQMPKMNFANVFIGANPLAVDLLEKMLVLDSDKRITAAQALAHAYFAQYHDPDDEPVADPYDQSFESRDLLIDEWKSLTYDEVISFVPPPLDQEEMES

The term IC50 denotes the point on the concentration scale where inhibition reaches its midpoint. Read a high IC50 as weaker potency in that assay. A word on the Kd: it is the free concentration of one partner at which half of the binding sites on the other are occupied at equilibrium, for simple one-to-one binding. In the case of `C=C1SN(C)c2ccc(S(=O)(=O)Nc3ccccc3N3CCCCC3)cc21` [BI-12H11], the IC50 worked out at 710 nM in assay [1] and 5610 nM in assay [2]. The compound further registered a Kd in assay [1] of 760 nM.
